Consider 29 compounds from patent US8269013B2, “Substituted pyrazole inhibitors of c-Met protein kinase” (Vertex Pharmaceuticals Incorporated, priority 2009, dated 2012).

pIC50, pKi: −log10 of the molar value.

By pKi is commonly meant −log10 of the Ki, conventionally taken in molar units. The pIC50 is −log10 of the IC50, conventionally taken in molar units.

In one assay the target is c-Met (Homo sapiens, UniProt P08581). As to the kind of experiment: c-Met kinase inhibition assay (radiometric, 33P-ATP, polyE4Y). It counts as biochemical. Conditions: 0.5 nM c-Met, 35 μM ATP, 0.5 mg/mL polyE4Y, 20 min; competitive tight-binding fit. As to the method: The compounds of the invention were screened for their ability to inhibit c-Met kinase using a standard radiometric assay. Briefly, in this kinase assay the transfer of the terminal ^33P-phosphate in ^33P-ATP to substrate polyE4Y is interrogated. […] Accordingly, compounds of the invention were dissolved in DMSO to make 10 mM initial stock solutions. Serial dilutions in DMSO were then made to obtain the final solutions for the assay. A 1.5 μL aliquot of DMSO or inhibitor in DMSO was added to each well, followed by the addition of ^33P-ATP, and finally the addition of c-Met and polyE4Y (obtained from Sigma). After 20 min, the reaction was quenched with 50 μL of 30% trichloroacetic acid (TCA) containing 4 mM ATP. The reaction mixture was transferred to the 0.66 mm GF filter plates (Corning) and washed three times with 5% TCA. Following the addition of 50 μL of Ultimate Gold™ high efficiency scintillant (Packard Bioscience), the samples were counted in a Packard TopCount NXT Microplate Scintillation and Luminescence Counter (Packard BioScience). The Ki values, shown in Table 2, were calculated using Microsoft Excel Solver macros to fit the data to the kinetic model for competitive tight-binding inhibition.

Assay [1] deals with c-Met in Snu5-AP1-Luc-Pest cells. Nature of the assay: Inhibition of c-Met activity in Snu5 gastric carcinoma cells (Snu5-AP1-Luc-Pest luciferase reporter). It counts as cell-based, human. Conditions: Steady-Glo luminescence, 4-parameter fit. From the text: Compounds of formula I were also screened for their ability to inhibit the Luciferase-induced signal in an engineered Snu5 cell line. […] The constitutively active c-Met activates cellular pathways (principally MAP kinase), resulting in AP-1-induced transcription of luciferase-PEST and translation into the final product, the activity of which is quantifiable as a chemiluminescent readout upon the addition of luciferin (Steady-Glo from Promega.). Residual luminescence is strongly correlated to the inhibition of c-Met. A stable cell line was obtained by selecting the new cell line (Snu5-AP1-Luc-Pest) with puromycin. The cells were grown in complete media [Iscove's media (Invitrogen) containing 10% fetal bovine serum (FBS, Hyclone) and penicillin/gentamycin (Invitrogen)]. Compounds of the invention were dissolved in DMSO to make 10 mM initial stock solutions. Serial dilutions in DMSO were then made and transferred to complete medium to make a 10× solution. The Snu5-AP1-Luc-Pest cells were counted and diluted to 200,000-cells/mL solution. The cells (90 μL) were added to each well in a 96-well black with clear bottom plate (Costar). Then 10 μL of the 10× compound solution was added to the cells in triplicate. The plates were incubated in a 37° C./5% CO2 incubator. After 6 hours, 50 μL of the Steady-Glo reagent (Promega) was added to each well and placed on a plate shaker for 5 minutes to ensure that the cells were completely lysed.

Sequence of c-Met (P08581 25-1390): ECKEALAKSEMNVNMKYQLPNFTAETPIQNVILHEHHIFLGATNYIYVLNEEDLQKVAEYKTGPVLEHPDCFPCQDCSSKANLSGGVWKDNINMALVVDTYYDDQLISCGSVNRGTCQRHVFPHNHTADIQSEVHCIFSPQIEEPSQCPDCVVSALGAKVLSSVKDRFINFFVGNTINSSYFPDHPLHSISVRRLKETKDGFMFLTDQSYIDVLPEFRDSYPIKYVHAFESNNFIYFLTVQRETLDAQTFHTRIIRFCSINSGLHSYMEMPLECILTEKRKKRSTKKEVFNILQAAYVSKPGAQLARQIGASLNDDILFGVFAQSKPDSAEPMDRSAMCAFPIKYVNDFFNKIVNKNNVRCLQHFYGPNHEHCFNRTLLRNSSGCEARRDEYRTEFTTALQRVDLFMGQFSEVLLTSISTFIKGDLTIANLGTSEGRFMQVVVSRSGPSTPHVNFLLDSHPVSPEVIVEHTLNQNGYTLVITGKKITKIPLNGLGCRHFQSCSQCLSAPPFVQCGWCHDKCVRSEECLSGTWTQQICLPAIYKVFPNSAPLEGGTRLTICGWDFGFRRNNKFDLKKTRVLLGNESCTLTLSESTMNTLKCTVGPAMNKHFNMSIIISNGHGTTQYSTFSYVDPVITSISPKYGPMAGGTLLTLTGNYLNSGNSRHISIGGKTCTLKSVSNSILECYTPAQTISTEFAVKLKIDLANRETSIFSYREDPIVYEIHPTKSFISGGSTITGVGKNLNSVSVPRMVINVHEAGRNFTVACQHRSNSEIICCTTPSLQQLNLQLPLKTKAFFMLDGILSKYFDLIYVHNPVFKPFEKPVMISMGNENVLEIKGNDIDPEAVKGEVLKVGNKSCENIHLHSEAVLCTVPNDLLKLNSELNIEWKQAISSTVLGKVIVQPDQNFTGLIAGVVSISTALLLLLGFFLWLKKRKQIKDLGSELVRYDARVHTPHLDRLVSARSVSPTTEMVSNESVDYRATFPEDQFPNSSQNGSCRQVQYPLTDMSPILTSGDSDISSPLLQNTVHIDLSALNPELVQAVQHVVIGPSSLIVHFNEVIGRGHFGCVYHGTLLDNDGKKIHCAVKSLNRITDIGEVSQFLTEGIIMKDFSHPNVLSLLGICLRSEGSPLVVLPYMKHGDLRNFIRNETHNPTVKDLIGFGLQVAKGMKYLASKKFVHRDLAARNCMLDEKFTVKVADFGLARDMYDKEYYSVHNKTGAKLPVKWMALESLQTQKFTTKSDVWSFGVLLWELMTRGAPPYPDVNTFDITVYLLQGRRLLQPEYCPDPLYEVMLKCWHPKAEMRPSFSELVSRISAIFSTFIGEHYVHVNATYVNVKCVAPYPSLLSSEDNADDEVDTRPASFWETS

On c-Met, `C[C@H](c1c(F)cc2ncccc2c1F)c1nnc2sc(-c3cnn(C)c3)nn12` [reference compound] had a negative logarithm of the Ki (pKi) of 7.15. Moreover, the negative logarithm of the IC50 (pIC50) in assay [1] (Homo sapiens, SNU-5, 6 hours) is 7.22. For `CCc1nn(C)cc1-c1nn2c([C@@H](C)c3ccc4ncccc4c3)nnc2s1` [Compound 10], in that order: 8.30 and 8.21.

For the compound `C[C@@H](c1ccc2ncccc2c1)c1nnc2sc(-c3cn(C)nc3C(F)(F)F)nn12` [Compound 11], on c-Met, the negative logarithm of the Ki (pKi) was 8.52. Further, in assay [1] (Homo sapiens, SNU-5, 6 hours), the pIC50 is 8.70. For `C[C@@H](c1ccc2ncccc2c1)c1nnc2sc(-c3cnn(C)c3)nn12` [reference compound], in that order: 7.62 and 7.82. As to `Cc1nn(C)cc1-c1nn2c([C@@H](C)c3c(F)cc4ncccc4c3F)nnc2s1` [Compound 18], at c-Met, the pKi was 8.70. Besides, the pIC50 in assay [1] (Homo sapiens, SNU-5, 6 hours) is 9.30. For `Cc1nn(C)cc1-c1nn2c([C@H](C)c3ccc4ncccc4c3)nnc2s1` [Compound 5], in that order: 7.62 and 8.60. The corresponding values for `C[C@@H](c1c(F)cc2ncccc2c1F)c1nnc2sc(-c3cnn(C)c3)nn12` [reference compound] are 8.30 and 8.22. Regarding `Cn1cc(-c2nn3c(C(F)(F)c4ccc5ncccc5c4)nnc3s2)cn1` [reference compound], at c-Met, the negative-log Ki (pKi) is 7.44. This compound also showed a negative-log IC50 (pIC50) in assay [1] (Homo sapiens, SNU-5, 6 hours) of 7.85. For `C[C@@H](c1ccc2ncccc2c1)c1nnc2sc(-c3cn(C)nc3C3CC3)nn12` [Compound 12], in that order: 8.15 and 8.15. For `Cc1nn(C)cc1-c1nn2c([C@H](C)c3c(F)cc4ncccc4c3F)nnc2s1` [Compound 19], in that order: 7.66 and 8.30. As for `CCc1nn(C)cc1-c1nn2c(Cc3ccc4ncccc4c3)nnc2s1` [Compound 2], the pIC50 in assay [1] (6 hours) is 8.40.

Regarding `Cc1nn(C)cc1-c1nn2c([C@@H](C)c3ccc4ncccc4c3)nnc2s1` [Compound 9], on c-Met, the pKi is 7.82. This compound also gave a negative-log IC50 (pIC50) in assay [1] (Homo sapiens, SNU-5, 6 hours) of 8.52. For `Cn1cc(-c2nn3c(Cc4ccc5ncccc5c4)nnc3s2)c(C(F)(F)F)n1` [Compound 3], the pIC50 in assay [1] (6 hours) was 8.70. Take `C[C@H](c1ccc2ncccc2c1)c1nnc2sc(-c3cnn(C)c3)nn12` [reference compound]: the negative-log Ki (pKi) at c-Met is 6.61. Besides, the pIC50 in assay [1] (Homo sapiens, SNU-5, 6 hours) is 7.05. The corresponding values for `Cn1cc(-c2nn3c(Cc4c(F)cc5ncccc5c4F)nnc3s2)c(C(F)(F)F)n1` [Compound 17] are 8.70 and 8.60. Consider `Cc1nn(C)cc1-c1nn2c(Cc3ccc4ncccc4c3)nnc2s1` [Compound 1], for which the negative logarithm of the IC50 (pIC50) in assay [1] (6 hours) was 8.70. Consider `Cc1nn(C)cc1-c1nn2c(C(F)(F)c3ccc4ncccc4c3)nnc2s1` [Compound 20], for which, at c-Met, the pKi is 7.85. The negative-log IC50 (pIC50) in assay [1] (Homo sapiens, SNU-5, 6 hours) was 8.40. As to `Cn1cc(-c2nn3c(Cc4ccc5ncccc5c4)nnc3s2)cn1` [reference compound], in assay [1] (Homo sapiens, SNU-5, 6 hours), the pIC50 was 7.07. For `Cc1nn(C)cc1-c1nn2c(C(C)(C)c3ccc4ncccc4c3)nnc2s1` [Compound 13], the pKi on c-Met was 6.44. Moreover, the negative-log IC50 (pIC50) in assay [1] (Homo sapiens, SNU-5, 6 hours) was 6.60. The corresponding values for `Cn1cc(-c2nn3c(C(C)(C)c4ccc5ncccc5c4)nnc3s2)cn1` [reference compound] are 5.47 and less than 6.00. The corresponding values for `CCc1nn(C)cc1-c1nn2c([C@H](C)c3ccc4ncccc4c3)nnc2s1` [Compound 7] are 8.00 and 8.22. The corresponding values for `CC(C)c1nn(C)cc1-c1nn2c(C(F)(F)c3ccc4ncccc4c3)nnc2s1` [Compound 21] are 8.40 and 8.22.

As for `CC(C)c1nn(C)cc1-c1nn2c(Cc3c(F)cc4ncccc4c3F)nnc2s1` [Compound 16], the pKi on c-Met is 8.62. In assay [1] (Homo sapiens, SNU-5, 6 hours), this compound gave a pIC50 of 8.52.

On c-Met, `CCc1nn(C)cc1-c1nn2c(Cc3c(F)cc4ncccc4c3F)nnc2s1` [Compound 15] gave a pKi of 8.60. This compound also had a pIC50 in assay [1] (Homo sapiens, SNU-5, 6 hours) of 8.70.

With `C[C@H](c1ccc2ncccc2c1)c1nnc2sc(-c3cn(C)nc3C(F)(F)F)nn12` [Compound 6], the pKi on c-Met is 8.15. The same compound showed a pIC50 in assay [1] (Homo sapiens, SNU-5, 6 hours) of 8.70. The corresponding values for `C[C@H](c1ccc2ncccc2c1)c1nnc2sc(-c3cn(C)nc3C3CC3)nn12` [Compound 8] are 7.62 and 8.52. For `Cn1cc(-c2nn3c(Cc4c(F)cc5ncccc5c4F)nnc3s2)cn1` [reference compound], in that order: 7.80 and 7.92. The compound `CC(C)c1nn(C)cc1-c1nn2c(Cc3ccc4ncccc4c3)nnc2s1` [Compound 4] showed a negative logarithm of the IC50 (pIC50) in assay [1] (6 hours) of 8.52. In turn, `Cc1nn(C)cc1-c1nn2c(Cc3c(F)cc4ncccc4c3F)nnc2s1` [Compound 14] had a pKi at c-Met of 8.15. The compound also showed a negative logarithm of the IC50 (pIC50) in assay [1] (Homo sapiens, SNU-5, 6 hours) of 8.70.
